Laboratory results as given in patent US6514914B1, “Inhibition of phospholipase D” (priority 1999, dated 2003).
“Also recorded” adds a separate entry of the source. Read-outs that look alike come from different tables or passages of the source.

Assays:
PLD = settings: animal systems; cited from earlier work
[1] = test system: microsomal PLD of sweet corn kernel; experiment: Phospholipase D activity by release of radiolabelled choline, microsomal fraction; format: biochemical, Zea mays
Method: (§1) Protein Extraction. Sweet corn (Zea mays L. cv Peaches and Cream) was used for this study. The kernels were obtained locally from a grocery store and stored frozen at −20° C. until it was used for protein extraction. Frozen kernels were homogenized in 0.1 m Tris-HCl buffer at pH 7.5 essentially as described by Pinhero et al. (1998), except that sucrose was not included in the homogenizing buffer. The mitochondrial, microsomal and the cytosolic fractions were collected by differential centrifugation (Pinhero et al., 1998). The fraction comprising the starch granules was removed by centrifuging the samples at 2500×g for 10 minutes. The resulting supernatant was subjected to centrifugation at 15,000×g to pellet the mitochondrial membrane fraction (Edwards and Gardestrom, 1987). The supernatant from this step was centrifuged at 105,000×g to pellet the microsomal membranes. The supernatant comprising the cytosol was subjected to ammonium sulphate fractionation at 30 and 60% saturation. The precipitated protein was collected by centrifugation at 15000×g and redissolved in 10 mM Tris-HCl pH 7.0 and dialyzed overnight with the same buffer, also containing 0.1 mM DTT, with two changes of 2 L each. Protein concentration was determined by the method of Bradford (1976) using bovine serum albumin as a standard. All steps of protein extraction procedure were carried out at 4° C.
(§2) Enzyme Assay. PLC activity was determined as described by Pinhero et al. (1998) by measuring the release of radiolabelled choline from L3-phosphatidyl(N-methyl-^3H) choline,1,2-dipalmitoyl at 23° C. The basic assay mixture contained 0.1 M Tris-HCl (pH 7.5), 0.2 mM EGTA, membrane or cytosol protein (2.5 μg), and approximately 100,000 dpm of choline-labelled phosphatidylcholine in 0.1% (v/v) Triton-X 100 (0.01% final), to make a total volume of 1 ml. To study the regulation of PLD by alcohols, aldehydes and metal ions, the appropriate amounts of the reagent solutions were added to the basic reaction mixture. Similarly, citrate and Tris-HCl buffers were used to study the effect of pH on PLD activity. The reaction was terminated after 10 minutes by adding 100 μL of 4 N HCl followed by 1 mL of chloroform/methanol (2:1, v/v) and left overnight. The amount of [^3H]choline released during the reaction was determined by mixing a 0.5 ml aliquot of the aqueous phase directly into 5 ml of scintillation fluid (Ecolume, ICN) and determining the amount of radiolabel using a Beckman LS 6800 Scintillation counter (Beckman Instruments Inc.).

[2] = test system: mitochondrial PLD of sweet corn kernel; experiment: Phospholipase D activity by release of radiolabelled choline, mitochondrial fraction; format: biochemical, Zea mays
Method: as §1, §2

[3] = test system: cytosolic PLD of sweet corn kernel; experiment: Phospholipase D activity by release of radiolabelled choline, cytosolic fraction; format: biochemical, Zea mays
Method: as §1, §2

[4] = test system: phospholipase D in sweet corn kernel; experiment: Phospholipase D activity by release of radiolabelled choline, fractions not distinguished; format: biochemical, Zea mays; settings: sweet corn kernel preparations, fraction not specified
Method: Protein Extraction. Sweet corn (Zea mays L. cv Peaches and Cream) was used for this study. The kernels were obtained locally from a grocery store and stored frozen at −20° C. until it was used for protein extraction. […] The fraction comprising the starch granules was removed by centrifuging the samples at 2500×g for 10 minutes. […] The supernatant from this step was centrifuged at 105,000×g to pellet the microsomal membranes. The supernatant comprising the cytosol was subjected to ammonium sulphate fractionation at 30 and 60% saturation. The precipitated protein was collected by centrifugation at 15000×g and redissolved in 10 mM Tris-HCl pH 7.0 and dialyzed overnight with the same buffer, also containing 0.1 mM DTT, with two changes of 2 L each. […] All steps of protein extraction procedure were carried out at 4° C.
as §2, with “PLC activity was determined as described by Pinhero et al. (1998) by measuring the release of radiolabelled choline from L3-phosphatidyl(N-methyl-^3H) choline,1,2-dipalmitoyl at 23° C.” left out
Protein Extraction: Sweet corn (Zea mays L. cv Peaches and Cream) was used for this study. The kernels were obtained locally from a grocery store and stored frozen at −20° C. until used. Frozen kernels were homogenized in 0.1 M Tris-HCl buffer at pH 7.5, containing 1 mM dithiothreitol, I mM phenylmethanesulfonylfluoride, 2 mM EDTA and 1 mM EGTA. The homogenate was filtered through four layers of cheese clothe. After removing the debris, the homogenate was subjected to differential centrifugation to separate mitochondria, microsomes and cytosol. The fraction comprising starch granules was removed by centrifuging the samples at 2500×g for 10 min. The resulting supernatant was subjected to centrifugation at 15000×g to pellet the mitochondrial membrane fraction. The supernatant from this step was centrifuged at 105,000×g to pellet the microsomal membranes. The supernatant was subjected to ammonium sulfate fractionation at 30 and 60% saturation to precipitate the cytosolic proteins. The precipitated proteins were pelleted by centrifugation at 15000×g and dissolved in 10 mM Tris HCI, pH 7.5, and dialyzed overnight in the same buffer also containing 0.1 mM DTT. Resuspended microsomal, mitochondrial membrane preparation and the cytosolic proteins were stored at −80° C. until used for phospholipase D assays.
Assay for Phospholipase D: Phospholipase D activity was determined by the liberation of choline from choline methyl labelled dipalmitoylphosphatidylcholine [L3-phosphatidyl (N-methyl-3H) choline 1,2-dipalmitoyl]. The basic assay mixture contained 0.1 M. Tris-HCl, pH 7.5, 0.2 mM EGTA, 1-2.5 ug of membrane or cytosolic protein (precipitated at 60% ammonium sulfate saturation) and 100,000 dpm of choline-labelled phosphatidylcholine in 0.1% Triton X-100 (final 0.01%), in a total volume of 1 ml. Hexanal and hexanol was added to the assay mixture and incubated for 5 min prior to the addition of substrate. The reaction was terminated after 10 min by the addition of 100 uL of 4N HCl, followed by 1 ml of chloroform: methanol (2:1 v/v) and left overnight.

phospholipase D = settings: reported in plants; cited from earlier work
parsley leaves = experiment: Parsley leaf senescence, excised leaves incubated in the dark for fourteen days; settings: increasing amounts in 2.5 ml water with 0.001% Tween-20, fourteen days in the dark
Method: Mature parsley leaves were excised and floated in water to randomize the leaves. After thorough washing 10 leaflets were incubated in petri plates lined with Whatman #1 filter paper and containing 2.5 ml of water containing various amounts of hexanal and 0.001% final Tween −20. Controls with water alone and Tween −20 were also incubated. The petri plates were incubated in the dark for fourteen days. The leaves were removed, chopped to fine pieces, and portions used for protein and pigment analyses. For protein analysis, a known amount of leaf segments (usually 0.6-0.7 g) were ground with 0.1 N NaOH (1 ml). After removing the debris by centrifugation, protein was determined in aliquots, using the dye-binding method by Bradford, 1976. To measure the pigments, leaf segments were extracted with 5 ml of 95% ethanol overnight in the dark. The absorbance readings were measured at […] to estimate chlorophyll a, at 647 nm for chlorophyll b and at […] for carotenoid. The data presented are the mean of two independent estimations from two sets of leaves incubated separately.

[5] = test system: PLD in leaf and root tissues of maize seedlings; settings: cited from earlier work
[6] = alcohol added to the assay mixture
[7] = increasing alcohol in the assay mixture
[8] = maximal stimulation, at 50 μM magnesium chloride
[9] = acetaldehyde, concentration not stated (discussion)
[10] = 0.2 mM of added calcium (10 μM of free calcium)
[11] = maximal stimulation, at 0.5 mM of added calcium, 0.2 mM EGTA in assay

hydroxy hexenal
effect on PLD (PLD): promoters of PLD

[Cl-].[Na+] [sodium chloride]
effect on microsomal PLD activity ([1]; monovalent salt up to 5 mM): remained nearly the same
effect on mitochondrial PLD activity ([2]; monovalent salt up to 5 mM): remained nearly the same
effect on cytosolic PLD activity ([3]; monovalent salt up to 5 mM): remained nearly the same
effect on PLD activity [4]: did not affect PLD activity substantially; also recorded: did not appear to have any major effects on PLD activity

CCO [ethanol]
effect on microsomal PLD activity [1]: stimulation in the activity
stimulation of microsomal PLD activity [1]: 50%
effect on mitochondrial PLD activity [2, 6]: stimulation in the activity
stimulation of mitochondrial PLD activity ([2]; maximal stimulation, at 0.25% ethanol (v/v)): 100%
effect on cytosolic PLD activity ([3]; ethanol levels above 0.5%): inhibited
effect on cytosolic PLD activity [3, 7]: marginal stimulation initially followed by a decline in activity

Lysophosphatidylethanolamine
inhibition of phospholipase D (phospholipase D): potent inhibitor of phospholipase D

CCCCCCO [hexanol]
effect on PLD activity [4]: potent inhibition of PLD activity; also recorded: effective inhibitors of PLD activity
amount of chlorophyll in parsley leaves versus controls (parsley leaves): greater amounts of chlorophyll than controls
senescence or aging of parsley leaves (parsley leaves): less senescence or aging has occurred

[Cl-].[K+] [KCl, potassium chloride]
effect on microsomal PLD activity ([1]; monovalent salt up to 5 mM): inhibited
effect on mitochondrial PLD activity ([2]; monovalent salt up to 5 mM): nearly similar activity with respect to their respective controls
effect on cytosolic PLD activity ([3]; monovalent salt up to 5 mM): nearly similar activity with respect to their respective controls
effect on PLD activity [4]: did not affect PLD activity substantially; also recorded: did not appear to have any major effects on PLD activity

[Cl-].[Cl-].[Mg+2] [magnesium chloride]
stimulation of microsomal PLD activity [1, 8]: ~100%
stimulation of cytosolic PLD activity [3, 8]: ~100%
effect on PLD activity [4]: slightly higher than that of calcium ions
effect on PLD activity [5]: not stimulated

CC=O [acetaldehyde]
inhibition of microsomal PLD activity ([1]; 2% v/v acetaldehyde): 80%
inhibition of microsomal PLD activity [1, 9]: over 75%
inhibition of mitochondrial PLD activity ([2]; 2% v/v acetaldehyde): 80%
inhibition of mitochondrial PLD activity [2, 9]: over 75%
inhibition of cytosolic PLD activity ([3]; 2% v/v acetaldehyde): 80%
inhibition of cytosolic PLD activity [3, 9]: over 75%

CCCO [propanol]
promotion in microsomal PLD activity ([1]; between 0.1 and 1% (v/v) propanol): 20-25%
effect on mitochondrial PLD activity [2, 6]: only a marginal increase
effect on cytosolic PLD activity [3, 7]: initial promotion of cytosolic activity followed by a decline
effect on PLD activity [4]: marginal

n-butanol
effect on microsomal PLD activity [1, 6]: decline in activity
effect on mitochondrial PLD activity [2, 6]: decline in activity
effect on cytosolic PLD activity [3, 7]: decline in activity
effect on PLD activity [4]: marginal

CCCCCC=O [hexanal]
effect on PLD activity [4]: potent inhibition of PLD activity; also recorded: effective inhibitors of PLD activity

[Ca+2] [calcium]
stimulation of microsomal PLD activity [1, 10]: ~40%
stimulation of microsomal PLD activity [1, 11]: 40-50%
effect on mitochondrial PLD activity ([2]; 0.5 mM of added calcium, 0.2 mM EGTA in assay): marginal stimulation
stimulation of cytosolic PLD activity [3, 10]: ~40%
stimulation of cytosolic PLD activity [3, 11]: 40-50%
effect on PLD activity [4]: marginally stimulated
effect on PLD activity [5]: not stimulated
